From US5939100A, “Composition for drug delivery comprising nicotine or a derivative thereof and starch microspheres and method for the manufacturing thereof” (Pharmacia and UpJohn AB, priority 1993, dated 1999)
Where two headings read alike, the source gives them in different places.

Assay: Intravenous administration of nicotine in rats (plasma nicotine, pharmacokinetics)
Type: in vivo, rat (male Lewis rats, Lew/Mol)
Conditions: rat, 0.15 mg/kg BW
Description: The plasma values obtained after i.v. administration of nicotine were just like those obtained by intranasal administration analysed for the number of phases.
One phase was recognized corresponding to only one elimination phase.
The model was fitted to the data using weighted least squares algoritm with the weighing factor=1.
The plasma nicotine values as a function of time after i.v. administration of nicotine are shown in the below Table 3 and FIG. 2. Six animals were used in the study. The pharmacokinetic parameters are calculated as described for the data obtained by intranasal administration.

Work on `CN1CCCC1c1cccnc1` (stereo not drawn) [nicotine] yielded a concentration at […] (15 minutes after i.v. adm., read-out: Plasma nicotine values, average for 6 rats) of 47 ng/mL, a concentration at 0.5 h (30 minutes after i.v. adm., read-out: Plasma nicotine values, average for 6 rats) of 61 ng/mL and a concentration at 0.75 h (45 minutes after i.v. adm., read-out: Plasma nicotine values, average for 6 rats) of 86 ng/mL. The concentration at 1 h (60 minutes after i.v. adm., read-out: Plasma nicotine values, average for 6 rats) was 50 ng/mL, the concentration at […] (75 minutes after i.v. adm., read-out: Plasma nicotine values, average for 6 rats) was 51 ng/mL and the concentration at […] (90 minutes after i.v. adm., read-out: Plasma nicotine values, average for 6 rats) was 38 ng/mL. The concentration at 1.75 h (105 minutes after i.v. adm., read-out: Plasma nicotine values, average for 6 rats) was 38 ng/mL, the concentration at 2 h (120 minutes after i.v. adm., read-out: Plasma nicotine values, average for 6 rats) was 59 ng/mL and the concentration at […] (150 minutes after i.v. adm., read-out: Plasma nicotine values, average for 6 rats) was 36 ng/mL. The concentration at 3 h (180 minutes after i.v. adm., read-out: Plasma nicotine values, average for 6 rats) was 22 ng/mL, the concentration at 3.5 h (210 minutes after i.v. adm., read-out: Plasma nicotine values, average for 6 rats) was 25 ng/mL and the concentration at 4 h (240 minutes after i.v. adm., read-out: Plasma nicotine values, average for 6 rats) was 20 ng/mL. It also gave a half-life (i.v., SIPHAR, read-out: Half-life (Ke line)) of 2.6 h, a k el (i.v., SIPHAR, read-out: Ke, parameter value (converted)) of 7.33e-05 s⁻¹ and an AUC(0-inf) (i.v., trapezoidal rule, read-out: AUC0-.infin. (converted)) of 262 ng·h/mL.
